Laboratory results as given in patent US9598362B2, “Benzidine derivative, method for preparing same, and pharmaceutical composition containing benzidine derivative for treating liver disease caused by hepatitis C virus” (priority 2013, dated 2017).
Like-named read-outs stand apart in the source and are kept apart here.

Legend:
[1] = system: HCV (JFH-5aFlucm4); assay: Evaluation of anti-HCV activity 1: huh7.5.1 cells inoculated with HCV carrying renilla luciferase reporter; assay type: cell-based; details: Hepatitis C virus
Experimental: To evaluate the anti-HCV activity of the compound represented by formula 1 of the present invention, the following experiment was performed.
The hepatoma cell line huh7.5.1 was distributed in a 12-well cell culture plate at the density of 50,000 cells/well. The cells were cultured in DMEM (Dulbecco's Modified Eagle's Medium 12800-017, GIBCO Co.) supplemented with 10% (v/v) FBS (Fetal Bovine Serum SH30406.02, Hyclone Co.) and 1% (v/v) antibiotics (penicillin/streptomycin solution SV30010, Hyclone Co.) in a 37° C. 6.0% CO2 incubator (CO2 Incubator 311, Forma Scientific Co, Lnc. USA) for 24 hours to lead cell attachment on the plate. Then, the cells were inoculated with HCV (JFH-5aFlucm4, PLoS One. 2011; 6(8):e228808.) having renilla luciferase gene as a reporter for 3 hours. Upon completion of the virus inoculation, the cell culture medium was replaced with the medium containing the compounds prepared in Examples 1˜24 at the concentration of 1 μM each. The cells were cultured in a 37° C. 6.0% CO2 incubator (CO2 Incubator 311, Forma Scientific Co, Lnc. USA) for 3 days. Three days after the infection, the cell culture medium was collected to measure the cytotoxicity in the following Experimental Example 3. The cells attached on the plate were washed with PBS (phosphate buffered saline) and then lysed by treating 100 μl of 1× passive lysis buffer (Promega, E1941). The cell lysate (10 μl) was added to renilla luciferase assay reagent (50 μl) in renilla luciferase assay system (Promega, E2820), followed by measurement of luminescence for 10 seconds using the luciferase measure program with Luminometer (GLOMAX 20/20 Luminometer, Promega). At this time, the measurement of luminescence was performed in triplicate with the groups treated with the compounds of Examples 1˜24 and the non-treated control group. The mean value was calculated and compared. The luminescence of each compound over the concentration was converted into EC50 (half maximal effective concentration) by using sigma plot program, and the results are shown in Table 2.

[2] = Evaluation of physiological activity: pharmacokinetics after oral or intravenous administration; assay type: in vivo; details: male mouse, 5 mg/kg; for AUC(0-inf): read-out: AUC0-∞, value up to infinite time from the administration; for half-life: read-out: T1/2 (time) (converted)
Experimental: The following experiment was performed to evaluate physiological activity of the compound prepared in Example 16 by observing the pharmacokinetic changes.
Particularly, the compound of Example 16 was orally or intravenously administered to male mouse, followed by observation of the pharmacokinetic changes. For the oral administration, the compound of Example 16 was dissolved to make the concentration 2.5 mg/ml. The prepared compound solution was orally administered at the dose of 5 mg/kg, followed by drawing blood from the jugular vein of the mouse at regular intervals. For the intravenous administration, tubes were inserted in the jugular vein and the femoral vein of male mouse. The compound solution was intravenously injected through the femoral vein at the dose of 5 mg/kg, followed by drawing blood from the mouse at regular intervals. The drawed blood was centrifuged to separate plasma. The plasma and urine samples were pretreated with a proper organic solvent, followed by investigation by LC-MS/MS. At this time, LC-MS/MS was performed by using mass spectrometry (Agilent 6460 QQQ, Agilent), LC lamp (Agilent 1260, Agilent), autosampler (Agilent 1260, Agilent), and data analysis system (Peak Sample Data System, Analyst 1.4.2, Applied Biosystems), and the conditions for LC-MS/MS were as follows; sample injection amount: 10 μl, flow rate: 0.3 ml/min, column: […] C18 column (50 mm×2.0 mm, 12 nm, YMC), elution buffer: acetonitrile: 10 mM ammoniumformate buffer=90:10 (v/v), and MS/MS condition: MPM mode: HCV (m/z 761.8170.1), IS (imipramine, m/z 281.286.2). The blood concentration over the administration period of the compound treated via oral or intravenous administration was analyzed, from which the noncompartmental pharmacokinetic parameter was calculated by using WinNonlin (Pharsight, USA).

[3] = Evaluation of plasma stability; assay type: in vitro ADME, mouse; details: plasma:phosphate buffer pH 7.4 1:1, 37° C., LC-MS/MS, relative to time 0
Experimental: Particularly, the compound of Example 16 was dissolved in dimethylsulfoxide at the concentration of 5 μM, resulting in the preparation of the sample solution. The plasma solution (495 μl) was prepared by mixing phosphate buffer (pH 7.4) and plasma at the ratio of 1:1, which was loaded in each well of a 96-well plate. The sample solution prepared above was added to each well (5 μl) of the plate. Then, the plate was covered with a lid, followed by shaking-culture at 100 rpm at 37° C. for 0.5, 1, and 4 hours in the orbital shaker. The reaction was terminated by adding 0-5° C. acetonitrile. At this time, in the case when the process time was 0 after the sample treatment, the reaction was terminated with acetonitrile at the same time as the sample solution was loaded in the plate containing the plasma solution. Upon completion of the reaction, the plate was kept frozen. Then, the plate was centrifuged at 3000 rpm for 10 minutes. Upon completion of the centrifugation, the supernatant (100 μl) was loaded in each well of a 96-well plate, followed by LC-MS/MS. The result obtained by measuring the plasma survival rate at the process time 0 was considered as the standard, based on which each time-dependent plasma survival rate was calculated by considering the concentration over the time of each sample. The results are presented in Tale 6.

[4] = molecular target: hERG (Homo sapiens, UniProt Q12809); assay: hERG ligand binding, fluorescence polarization with red fluorescent hERG channel ligand
hERG, sequence (Q12809 whole entry): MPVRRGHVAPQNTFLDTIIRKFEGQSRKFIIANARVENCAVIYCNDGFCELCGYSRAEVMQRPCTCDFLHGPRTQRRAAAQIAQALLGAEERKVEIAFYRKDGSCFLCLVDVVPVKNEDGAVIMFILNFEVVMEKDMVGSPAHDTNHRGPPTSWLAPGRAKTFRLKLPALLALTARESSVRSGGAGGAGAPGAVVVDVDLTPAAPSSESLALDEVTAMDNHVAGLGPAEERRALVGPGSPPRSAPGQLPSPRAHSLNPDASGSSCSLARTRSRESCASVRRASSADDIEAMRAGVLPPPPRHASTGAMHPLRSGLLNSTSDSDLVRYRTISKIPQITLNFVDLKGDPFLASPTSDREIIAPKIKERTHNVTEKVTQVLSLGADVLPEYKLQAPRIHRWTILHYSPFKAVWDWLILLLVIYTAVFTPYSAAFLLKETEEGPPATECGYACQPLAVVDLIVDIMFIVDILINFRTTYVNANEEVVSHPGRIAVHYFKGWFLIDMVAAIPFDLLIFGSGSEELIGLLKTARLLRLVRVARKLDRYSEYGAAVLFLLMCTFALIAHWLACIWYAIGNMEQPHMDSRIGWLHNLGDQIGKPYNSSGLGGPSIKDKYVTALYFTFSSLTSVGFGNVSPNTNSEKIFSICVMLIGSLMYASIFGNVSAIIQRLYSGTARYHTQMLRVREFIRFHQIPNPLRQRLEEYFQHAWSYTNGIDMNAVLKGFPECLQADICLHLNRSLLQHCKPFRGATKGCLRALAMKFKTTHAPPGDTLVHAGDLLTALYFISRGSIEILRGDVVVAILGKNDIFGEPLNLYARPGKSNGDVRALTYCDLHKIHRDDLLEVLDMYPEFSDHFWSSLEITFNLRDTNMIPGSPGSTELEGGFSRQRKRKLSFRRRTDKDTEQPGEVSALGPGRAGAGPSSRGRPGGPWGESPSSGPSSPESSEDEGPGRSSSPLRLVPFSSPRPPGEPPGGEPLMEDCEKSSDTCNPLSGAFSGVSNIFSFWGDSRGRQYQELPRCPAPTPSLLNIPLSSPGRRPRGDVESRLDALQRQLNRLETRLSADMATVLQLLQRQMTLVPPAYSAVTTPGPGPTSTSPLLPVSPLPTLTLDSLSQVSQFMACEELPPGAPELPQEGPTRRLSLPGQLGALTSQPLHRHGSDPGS

Molecule `COC(=O)N[C@@H](C(=O)N1CCC[C@H]1C(=O)Nc1ccc(-c2ccc(NC(=O)[C@@H]3CCCN3C(=O)[C@H](NC(=O)OC)c3ccccc3)cc2)cc1)c1ccccc1` [Example 16, dimethyl(1S,1′S)-2,2′-((2S,2′S)-2,2′-(biphenyl-4,4′-diylbis(azandiyl))bis(oxomethylene)bis(pyrrolidine-2,1-diyl))bis(2-oxo-1-phenylethane-2,1-diyl)dicarbamate] has an EC50 ([1]; Huh-7.5.1) of under 0.001 µM, an EC50 ([1]; Huh-7.5.1, 72 h, read-out: EC50 grade) of under 0.001 µM and an AUC0-t ([2]; intravenous injection) of 9160 ± 1030 ng·h/mL. For the same molecule, the “AUC0-∞” value ([2]; intravenous injection) was 9370 ± 1060 ng·h/mL, the AUC0-t ([2]; oral administration) was 1830 ± 565 ng·h/mL and the “AUC0-∞” value ([2]; oral administration) was 2500 ± 498 ng·h/mL. For the same molecule, the “Tmax (time)” value ([2]; oral administration) was 2 ± 1.73 time, the Cmax ([2]; oral administration, plasma) was 188 ng/mL and the AUC0-t ([2]; plasma, iv, intravenously injected, read-out: AUC0-24, value up to 24 hours from the administration) was 9160 ng·h/mL. For the same molecule, the AUC(0-inf) ([2]; plasma, iv, intravenously injected) was 9370 ng·h/mL, the bioavailability ([2]; plasma, po relative to iv, printed in the Intravenous Injection column, read-out: Ft, bioavailability) was 20% and the AUC0-t ([2]; plasma, po, orally administered, read-out: AUC0-24, value up to 24 hours from the administration) was 1830 ng·h/mL. It also gave an AUC(0-inf) ([2]; plasma, po, orally administered) of 2500 ng·h/mL, a clearance ([2]; plasma, intravenous injection) of 8.97 mL/min/kg and a half-life ([2]; plasma, intravenous injection) of 4.09 ± 3.06 h. For the same molecule, the Vd ([2]; plasma, intravenous injection, read-out: Vss) was 1.31 ± 0.144 L/kg, the half-life ([2]; plasma, oral administration) was 15 ± 9.5 h and the Tmax ([2]; plasma, oral administration, read-out: time to reach the maximum concentration (Tmax)) was 2 h. The “Survival rate after 0.5 h” value [3] was over 99%, the “Survival rate after 1 h” value [3] was over 99% and the IC50 [4] was 9.8 µM.
